In assay [1] the test system is T1, α-subunit containing GABAA receptor (GABAAR) from human amygdala.
T1 construct: gene GABRA1
To be noted: agonist; -70 mV, pH 7.4, room temperature.

Assay [2] has the same test system. Type of assay: cell-based. Particulars: antagonist against 50 μmol/L GABA; pH 7.4, room temperature.

Take `NCc1cc(O)no1` [muscimol]: the response in assay [1] was half-maximal at 45 µM (EC50).
`CN1CCc2cc3c(cc2[C@H]1[C@@H]1OC(=O)c2c1ccc1c2OCO1)OCO3` [bicuculline]: the IC50 in assay [2] came to 8 µM.

The record behind these values is paper PMC5371550, “GABAB receptor attenuation of GABAA currents in neurons of the mammalian central nervous system” (Physiological Reports, 2017).
